From patent US20260151391A1, “TREATMENT OF MITOCHONDRIAL DISEASES WITH sGC STIMULATORS” (Tisento Therapeutics Inc., priority 2022, published 2026)
Like-named read-outs stand apart in the source and are kept apart here.

Experiments:
[1] = Non-human primate CSF pharmacokinetics (Study B), cisterna magna versus lumbar sampling; assay type: in vivo, Macaca fascicularis; details: for Kp uu at 3 h / Kp uu at 24 h: female, Cynomolgus macaque, cynomolgus monkey, read-out: geomean ratio of CSF concentration to unbound concentration in plasma (Kp,uu)
Excerpt: The objective of this study was to investigate the pharmacokinetics of Compound 1-14 after administration of a single […] bolus or oral gavage dose to cynomolgus monkeys on Day 1 and to evaluate differences in pharmacokinetic values when comparing CSF collected at the cisterna magna (as in Example 10A) versus lumbar locations. [table] • Species: Macaca fascicularis • Strain: Cynomolgus macaque • Number of Females: 4 • Age: Adult • Weight: 2.5-4 kg Single doses of Compound I-14 were administered intravenously as a bolus injection of a solution at 0.15 mg/kg and orally by gavage as a suspension at 0.5 mg/kg to a group of four female cynomolgus monkeys in a crossover design. Plasma samples were collected at 0.25 (15 min), 0.5 (30 min), 1, 2, 3, 6, 8, 12, 24, 32, and 48 h following the IV and PO doses. CSF samples were collected at 3 and 24 h for all animals from the cisterna magna in groups 1 and 2 and the lumbar from groups 3 and 4. Sample extracts were prepared by protein precipitation and Compound I-14 concentrations were measured using LC-MS/MS. Pharmacokinetic parameters were calculated.

[2] = test system: memory disruption induced by MK-801 in male Long Evans rats; assay: Novel Object Recognition (NOR) test, memory disruption induced by MK-801; assay type: in vivo, rat; details: any dose tested, oral
Method: In the present study, a memory saving model was used. MK-801 (Dizocilpine), an uncompetitive antagonist of the NMDA receptor was used to cause deficit of recognition memory. sGC stimulators were evaluated for their efficacy to prevent memory impairment induced by MK-801.
Adult male Long-Evans rats (275-299 gram at arrival from Envigo, Indianapolis, IN) were used in this study. Rats were placed in the experimental rooms and assigned unique identification numbers (tail marks). Rats were housed 2 per cage in polycarbonate cages with filter tops and acclimated for at least 7 days prior to testing. […]
NOR test was conducted in an open-field arena (40×40 cm) placed in a sound-attenuated room under dimmed lighting. […] All training and testing trials were video-taped and scored by an observer blind to treatments.
On Days 1 and 2, rats were allowed to freely explore the arena (no objects inside) for a 5-minute habituation period. […] Each rat was placed in the arena facing the same direction at the same position, and the time spent actively exploring the objects during a 3-minute training period (T1) was recorded. […] Each rat was placed back into the test arena in the presence of one familiar object and one novel object for 5 minutes, and the time spent exploring both objects was recorded. […]

[3] = CSF (cisterna magna) / unbound plasma, IV bolus 0.15 mg/kg, cisterna magna sampling
[4] = CSF (cisterna magna) / unbound plasma, oral gavage 0.5 mg/kg, cisterna magna sampling
[5] = CSF (lumbar) / unbound plasma, IV bolus 0.15 mg/kg, lumbar sampling
[6] = CSF (lumbar) / unbound plasma, oral gavage 0.5 mg/kg, lumbar sampling

Q: With `Cc1cc(F)c(Cc2nc(-c3ncc(F)c(O)n3)cn3ccnc23)cc1F` [Compound I-14, 5-fluoro-2-(8-(2,5-difluoro-4-methylbenzyl)imidazo[1,2-a]pyrazin-6-yl)pyrimidin-4-ol] as the molecule, how does the “presence of compound in CSF” value ([1]; IV and PO administration, cisterna magna and lumbar sampling) read?
A: observed in the CSF at 3 and 24 hours

Q: And the Kp uu at 3 h [1, 3]?
A: 2 to 3

Q: What about the Kp uu at 3 h [1, 4] of the same molecule?
A: 2 to 3

Q: What about the Kp uu at 24 h [1, 3] of the same molecule?
A: 1 to 2

Q: And the Kp uu at 24 h [1, 4]?
A: 2 to 3

Q: And the Kp uu at 3 h [1, 5]?
A: 2 to 3

Q: And the Kp uu at 3 h [1, 6]?
A: 2 to 3

Q: What about the Kp uu at 24 h [1, 5] of the same molecule?
A: 1 to 2

Q: What about the Kp uu at 24 h [1, 6] of the same molecule?
A: 2 to 3

Q: And the “obvious side effects in NOR study” value [2]?
A: None of the rats in this study showed obvious side effects
